Reference: patent US6459017B1, “Iris transformation method” (The State of Oregon Acting By and Through the State Board …, priority 2000, dated 2002)

Assays:
[1] = system: suspension-cultured cells of Iris germanica; assay: Effect of Kin and NAA in MS-I medium on regeneration potential of differentiated clumps; type: cell-based; conditions: 6 weeks on MS-D with 1.25 μM BA
Method: Effect of Kin and NAA, a/one and in combination, in MS-I medium. To induce plant morphogenesis from suspension-cultured cells, 16 different combinations of NAA (0.0, 0.5, 2.5, and 12.5 μM) and Kin (0.0, 2.5, 12.5, and 62.5 μM) were evaluated. A 0.5-mL aliquot of the resuspended cells was inoculated on each 15×60 mm plastic plate containing 20 mL MS-I medium with different combinations of Kin and NAA. The cells were spread with a spoon-like spatula to form a uniform layer on the surface of MS-I medium. The plates were sealed with Parafilm® and incubated in the dark at 25° C. The number of differentiated clumps was recorded after five weeks. The clumps were collected and grouped into four size classes: large (>10 mm), medium (5 to 10 mm), small (2 to 5 mm) and very small (<2 mm). The regeneration potential of differentiated clumps was assessed by randomly sampling 30 to 60 clumps from each size class and transferring them to three to six Magenta GA-7 vessels (Sigma Chem. Co., St. Louis, Mo.) containing 50 mL of MS-D medium (Table 1) supplemented with 1.25 μM BA. They were then incubated under light (50 μmol m^−2 s^−1) at 23° C. for six weeks. The total number of regenerating clumps (i.e., differentiated clumps that continued to grow and develop on MS-D medium) was counted, and percentages of regenerating clumps that developed shoots only or plantlets (rooted shoots derived from somatic embryos) were recorded. The regenerated shoots and plantlets were transferred to MS-R medium (Table 1) to promote root development. Each Kin/NAA combination was evaluated in five plates per experiment; the entire experiment was repeated three times.

[2] = system: non-transformed iris cells; assay: Evaluation of selection agents: growth suppression of non-transformed iris suspension-cultured cells on MS-C medium; type: cell-based, Iris germanica; conditions: for inhibition of cell growth scored visually: preliminary experiments, five concentrations
Method: Evaluation of selection agents. […] To determine the efficacy of several commonly used agents for selecting transformed iris cells, the following substances were tested: five antibiotics (methotrexate, hygromycin, geneticin (G418), gentamycin, and phleomycin); three herbicides (glyphosate [N-(Phosphonomethyl)glycine] (Monsanto, St. Louis, Mo.), chlorsulfuron [2-Chloro-N-[[(methoxy-6-methyl-1,3,5-triazin-2-yl)amino]carbonyl]benzenesulfonamide] (E.I. Du Pont de Nemours & Co., Inc., Agricultural Products Dept., Wilmington, Del.) and glufosinate-ammonium (Basta; Hoechst Canada, Inc., Regina, Saskatchewan, Canada)); and one amino acid analog (4-methyl-tryptophan) (Sigma).
The liquid MS-L medium was removed from a three-week-old iris suspension culture and the cells spread on Whatman No. 1 filter papers (42.5 mm diameter) in small culture plates (60 mm×15 mm), over MS-C medium [MS-L medium with 3 g·L^−1 Phytagel (Sigma Chem. Co., St. Louis, Mo.), as described in Examples 1 and 2] containing increasing amounts of the selection agent. Plates were incubated for three weeks in the dark at 25° C. In preliminary experiments, five concentrations of each selection agent were tested and inhibition of cell growth was scored visually.
Fresh weights of resultant tissue were measured and mean values, expressed as a percentage of growth by controls (no selection agent). At least five plates were used for each concentration of selection agent.

[3] = system: leaf samples from non-transformed iris plants; assay: Leaf-bleach assay with paromomycin; design: species or system Iris germanica; conditions: 200 mg·L^−1 paromomycin; leaf samples from control (non-transgenic) plants; five days
Method: Functional assay of NPTII genes. To test the NPTII expression in transformed iris plants, the leaf-bleach assay was carried out according to Cheng et al. (Plant Physiol., 115:971-980, 1997), with minor modifications described below. Four pieces (≈7-mm) were cut from the second youngest leaf of each plant approximately one month after establishment in growing medium in the greenhouse. One leaf piece was placed in 1 mL of solution containing 25 mg·L^−1 benomyl fungicide [methyl 1-(butylcarbamoyl)-2 benzimidazolecarbamate] (Hi-Yield Chem. Co., Bonham, Tex.) and 0.01% Triton X-100 (Sigma), in a well of 24-well culture plate, as a control. Each of the remaining three pieces were placed in 1 mL of the same solution with either 50, 100, or 200 mg·L^−1 paromomycin (Sigma). Leaf samples from the non-transformed iris plants at a similar developmental stage were used as a negative control. The samples were vacuum-infiltrated for 10 minutes. The plates were then sealed with Parafilm and incubated for five days at 23° C. with a 16 hours photoperiod of 50 μmol·m^−2·s^−1 provided by cool-white fluorescent lamps. In preliminary assays, G418 and hygromycin were also tested, the latter for the functional expression of the hpt gene. The response to all three antibiotics was very similar, so paromomycin was selected to assay the rest of the putative transgenic iris plants because it was least expensive.

[4] = 0.5 μM in MS-I medium (main effect)
[5] = 2.5 μM in MS-I medium (main effect)
[6] = 12.5 μM in MS-I medium (main effect)
[7] = 62.5 μM in MS-I medium (main effect)

O=C(O)Cc1cccc2ccccc12 [NAA, 1-naphthaleneacetic acid]
Regenerating clumps (%) [1, 4]: 56%
Regenerating clumps developing PLANTLETS (%) [1, 4]: 94%
Regenerating clumps developing SHOOTS ONLY (%) [1, 4]: 6%
Regenerating clumps (%) [1, 5]: 55%
Regenerating clumps developing PLANTLETS (%) [1, 5]: 89%
Regenerating clumps developing SHOOTS ONLY (%) [1, 5]: 11%
Regenerating clumps (%) [1, 6]: 33%
Regenerating clumps developing PLANTLETS (%) [1, 6]: 94%
Regenerating clumps developing SHOOTS ONLY (%) [1, 6]: 7%

CP(=O)(O)CCC(N)C(=O)O (centres unmarked) [Basta, glufosinate-ammonium]
inhibition at 10 µg/mL ([2]; Iris germanica, 504 h, read-out: cell growth inhibited): ~70%

NC[C@@H]1O[C@H](O[C@H]2[C@@H](O)[C@H](O[C@@H]3[C@@H](O)[C@H](N)C[C@H](N)[C@H]3O[C@H]3O[C@H](CO)[C@@H](O)[C@H](O)[C@H]3N)O[C@@H]2CO)[C@H](N)[C@@H](O)[C@@H]1O [paromomycin]
leaf bleaching [3]: almost completely bleached

O=C(O)CNCP(=O)(O)O [glyphosate, N-(Phosphonomethyl)glycine]
inhibition of cell growth scored visually [2]: did not clearly inhibit growth

gentamycin
inhibition of cell growth scored visually [2]: did not clearly inhibit growth

c1coc(CNc2ncnc3[nH]cnc23)c1 [KIN, kinetin]
Regenerating clumps (%) [1, 5]: 41%
Regenerating clumps developing PLANTLETS (%) [1, 5]: 96%
Regenerating clumps developing SHOOTS ONLY (%) [1, 5]: 5%
Regenerating clumps (%) [1, 6]: 44%
Regenerating clumps developing PLANTLETS (%) [1, 6]: 89%
Regenerating clumps developing SHOOTS ONLY (%) [1, 6]: 12%
Regenerating clumps (%) [1, 7]: 45%
Regenerating clumps developing PLANTLETS (%) [1, 7]: 88%
Regenerating clumps developing SHOOTS ONLY (%) [1, 7]: 12%

CN(Cc1cnc2nc(N)nc(N)c2n1)c1ccc(C(=O)N[C@@H](CCC(=O)O)C(=O)O)cc1 [methotrexate]
inhibition at 0.05 µg/mL ([2]; Iris germanica, 504 h, 0.05 mg·L^−1, three weeks on MS-C medium, read-out: cell growth inhibited): ~80%

COc1nc(C)nc(NC(=O)NS(=O)(=O)c2ccccc2Cl)n1 [chlorsulfuron, 2-Chloro-N-[[(methoxy-6-methyl-1,3,5-triazin-2-yl)amino]carbonyl]benzenesulfonamide]
inhibition at 0.5 µg/mL ([2]; Iris germanica, 504 h, 0.5 mg·L^−1, three weeks on MS-C medium, read-out: cell growth inhibited): ~90%

phleomycin
inhibition of cell growth scored visually [2]: did not clearly inhibit growth

Cc1cccc2[nH]cc(C[C@H](N)C(=O)O)c12 [4-methyl-tryptophane, 4-methyl-tryptophan]
inhibition of cell growth scored visually [2]: did not clearly inhibit growth
